Paper PMC9986241 (Signal Transduction and Targeted Therapy, 2023)
Where two headings read alike, the source gives them in different places.

Tests used:
A375 (BRAF V600E) = assay: Cell proliferation MTT assay; type: cell-based; settings: Homo sapiens
Protocol: (§1) The synergism and antagonism (CI value) were determined and analyzed using CompuSyn 1.0.
(§2) For cytotoxicity test, normal NHDF (5000 cells/well) and NHEM cell line (3000 cells/well) were planted into 96-well plates. For cell proliferation assay, A375 (1500 cells/well), SK-MEL-28 (3000 cells/well), SK-MEL-2 (4000 cells/well), and HCT116 (1500 cells/well) were planted into 96-well plates, determined concentration of drug was added after culture for 24 h. The viability of the cells was detected within 72 h using MTT solution (5 mg/mL). The absorbance at 570/490 nm was quantified by the use of the microplate reader.

HCT116 (KRAS mut) = assay: Cell proliferation MTT assay; type: cell-based; settings: Homo sapiens, HCT-116; MTT, 72 h; read-out: IC50
Protocol: as §1, §2

SK-MEL-2 (NRAS mut) = assay: Cell proliferation MTT assay; type: cell-based; settings: Homo sapiens, SK-MEL-2; MTT, 72 h; read-out: IC50
Protocol: as §1, §2

SK-MEL-28 (BRAF V600E) = assay: Cell proliferation MTT assay; type: cell-based; settings: Homo sapiens
Protocol: as §1, §2

melanoma PDX = assay: Patient-derived xenograft (PDX); type: in vivo; settings: oral gavage; erianin, vemurafenib 50 mg/kg once a day; cobimetinib 5 mg/kg twice a week; within 78 days
Protocol: Fig. 7 Erianin exerts antitumor efficacy in melanoma and colorectal cancer in vivo. a Tumor pharmacodynamic assay was performed in tumor-bearing NPG mice (tumor has been passaged from melanoma patient to mice for three generations). The photographs show tumors from melanoma PDX mice treated with vehicle or drugs. b The effect of erianin on the volume of PDX tumors over time (within 78 days) was plotted. Vehicle, erianin (50 mg/kg, once a day), vemurafenib (50 mg/kg, once a day), erianin and vemurafenib combination therapy, cobimetinib (5 mg/kg, twice a week) or vemurafenib and cobimetinib combination therapy (once a day and twice a week, respectively) were administered by oral gavage, n = 8 in each group. Tumor volume was measured once a week. […] Scale bars: 20 μm. One-way ANOVA test. ***p < 0.001. e Antitumor efficacy of erianin with or without immunity using B16F10 cell xenograft in C57BL-6J mouse. f, g Trend of tumor volume over time and tumor weight was measured after treatment on the last day of the study.

[1] = system: MAPK signaling pathway (phospho-CRAF, phospho-MEK1/2, phospho-ERK1/2); assay: Western blotting of MAPK signaling pathway in cells
A375 (BRAF V600E) CDX = assay: Cell-derived xenograft (CDX); settings: 50 mg/kg, oral gavage, vs vehicle-treated group
Protocol: (§3) Tumor volume (mm^3) = (length × width × height) × 0.52. SK-MEL-2: n = 10; A375 and SK-MEL-28: n = 8; HCT116: n = 9. b The photographs show tumors from CDX mice treated with vehicle, erianin, vemurafenib, or the combination. c The weight of the tumors was quantified and expressed as the treatment groups compared with the vehicle-treated group. […] The tissue lysates were prepared from CDX tumor tissues in each treatment group. […] Each point represents the IOD values of four quantified data from one mouse. Scale bars: 50 μm.
(§4) The animal experiments were performed according to the guidelines approved by the Zhengzhou University Institutional Animal Care and Use Committee. A375 cell line (1 × 10^7 cell/mouse), SK-MEL-28 cell line (5 × 10^6 cell/mouse), SK-MEL-2 cell (5 × 10^6 cell/mouse), and HCT116 cell line (1 × 10^7 cell/mouse) were injected subcutaneously into the NOD-SCID mice (Vital River Labs, Beijing, China). For the melanoma PDX mice model, the tumor was taken after surgical operation and implanted into the NPG (Vital River Labs, Beijing, China) mice under a sterile environment. For the colorectal cancer PDX mice model, NOD-SCID mice were selected as carriers for tumor growth. The measurement of tumor size was performed twice a week using vernier caliper and the calculation of tumor volume was done according to tumor volume (mm^3) = length × width × height × 0.52.

[2] = system: SK-MEL-28 (BRAF V600E) CDX; assay: Cell-derived xenograft (CDX); settings: 50 mg/kg, oral gavage, vs vehicle-treated group
Protocol: as §3, §4

SK-MEL-2 (NRAS mut) CDX = assay: Cell-derived xenograft (CDX); type: in vivo, NOD-SCID mice; settings: 50 mg/kg, oral gavage
Protocol: as §3, §4

HCT116 (KRAS mut) CDX = assay: Cell-derived xenograft (CDX); type: in vivo, NOD-SCID mice; settings: 50 mg/kg, oral gavage
Protocol: as §3, §4

[3] = A-375, MTT, 72 h, read-out: IC50
[4] = SK-MEL-28, MTT, 72 h, read-out: IC50

## Cn1cnc2c(F)c(Nc3ccc(Br)cc3F)c(C(=O)NOCCO)cc21 [Binimetinib]
A375 (BRAF V600E); [3]
  IC50: 60.9 ± 14.4 nM
HCT116 (KRAS mut)
  IC50: 509 ± 145 nM
SK-MEL-2 (NRAS mut)
  IC50: 240 ± 81.2 nM
SK-MEL-28 (BRAF V600E); [4]
  IC50: 129 ± 28.3 nM

## O=C(c1ccc(F)c(F)c1Nc1ccc(I)cc1F)N1CC(O)([C@@H]2CCCCN2)C1 [Cobimetinib]
Melanoma PDX
  tumor volume: no differences between erianin and cobimetinib
[1]; SK-MEL-2 and HCT116, 24 h
  phosphorylation of MEK1/2: increased phosphorylation of MEK1/2
[1]; both BRAF V600E and RAS mutant cells, 24 h
  phosphorylation of ERK1/2: inhibits phosphorylation of ERK1/2 effectively
A375 (BRAF V600E); [3]
  IC50: 3.2 ± 1.3 nM
HCT116 (KRAS mut)
  IC50: 51.3 ± 8.9 nM
SK-MEL-2 (NRAS mut)
  IC50: 119 ± 38.2 nM
SK-MEL-28 (BRAF V600E); [4]
  IC50: 2.6 ± 0.4 nM

## CC(C)(C)c1nc(-c2cccc(NS(=O)(=O)c3c(F)cccc3F)c2F)c(-c2ccnc(N)n2)s1 [Dabrafenib]
A375 (BRAF V600E); A-375, 72 h
  IC50: 36.7 ± 9.7 nM
HCT116 (KRAS mut)
  IC50: > 18000 nM
SK-MEL-2 (NRAS mut)
  IC50: > 60000 nM
SK-MEL-28 (BRAF V600E); SK-MEL-28, 72 h
  IC50: 41 ± 15.5 nM

## COC(=O)N[C@@H](C)CNc1nccc(-c2cn(C(C)C)nc2-c2cc(Cl)cc(NS(C)(=O)=O)c2F)n1 [Encorafenib]
A375 (BRAF V600E); [3]
  IC50: 9.5 ± 3.9 nM
HCT116 (KRAS mut)
  IC50: > 2000 nM
SK-MEL-2 (NRAS mut)
  IC50: > 9000 nM
SK-MEL-28 (BRAF V600E); [4]
  IC50: 6.5 ± 1.2 nM

## CNc1ncc2cc(-c3cc(NC(=O)NCCC(C)(C)C)c(F)cc3C)c(C)nc2n1 [LY3009120]
[1]; low dose, 24 h
  kinase activity of CRAF (phosphorylation of CRAF and MEK1/2): induced kinase activity of CRAF at a low dose

## CC(=O)Nc1cccc(-n2c(=O)n(C3CC3)c(=O)c3c(Nc4ccc(I)cc4F)n(C)c(=O)c(C)c32)c1 [Trametinib]
A375 (BRAF V600E); [3]
  IC50: 2.2 ± 0.8 nM
HCT116 (KRAS mut)
  IC50: 22.1 ± 9.2 nM
SK-MEL-2 (NRAS mut)
  IC50: 50.6 ± 1.7 nM
SK-MEL-28 (BRAF V600E); [4]
  IC50: 1.9 ± 0.2 nM

## CCCS(=O)(=O)Nc1ccc(F)c(C(=O)c2c[nH]c3ncc(-c4ccc(Cl)cc4)cc23)c1F [Vemurafenib, reference compound]
Melanoma PDX
  tumor volume: did not suppress tumor volume significantly
A375 (BRAF V600E) CDX
  tumor volume: significant decrease
[2]
  tumor volume: significant decrease
[1]; SK-MEL-2 and HCT116, 24 h
  activation of MAPK signaling pathway (CRAF, MEK1/2, ERK1/2): induced the paradoxical activation of MAPK signaling pathway
SK-MEL-2 (NRAS mut) CDX
  tumor volume and tumor weight: poor effect
HCT116 (KRAS mut) CDX
  tumor volume and tumor weight: poor effect
A375 (BRAF V600E); [3]
  IC50: 314 ± 73.7 nM
HCT116 (KRAS mut)
  IC50: > 20000 nM
SK-MEL-2 (NRAS mut)
  IC50: > 40000 nM
SK-MEL-28 (BRAF V600E); [4]
  IC50: 344 ± 36.4 nM
